Results published in patent EP0367747A2, “Dideoxy-L-arabinitol derivatives as antiviral compounds” (G.D. Searle & Co., priority 1988, dated 1990).

Experiments:
[1] = system: visna virus; assay: Inhibition of visna virus in vitro (plaque reduction assay / 96 well plate assay) in SCP cells; assay type: cell-based; design: key to Antiviral Activity: A = active compound; I = inactive; conditions: for inhibition at 1 µM / inhibition at 10 µM / inhibition at 100 µM / inhibition at 1000 µM / EC50: Visna-maedi virus; for inhibition at 1 µM: Concentration 0.001 mM; for inhibition at 10 µM: Concentration 0.01 mM; for inhibition at 100 µM: Concentration 0.1 mM; for inhibition at 1000 µM: Concentration 1.0 mM; for EC50: inhibition of visna virus, read-out: EC₅₀; for Antiviral Activity: Table 4
Method: Various compounds as prepared above were tested for inhibition of visna virus in vitro in a plaque reduction assay as follows:
Sheep choroid plexus(SCP) cells were obtained from American Type Culture Collection (ATCC) catalogue number CRL 1700 and were routinely passaged in vitro in Dulbecco's Modified Eagles (DME) medium supplemented with 20% fetal bovine serum (FBS). SCP cells were passaged once per week at a 1:2 or 1:3 split ratio. Visna was titrated by plaque assay in six-well plates. Virus pools were stored at -70°C.
(§1) SCP cells were cultured in 6-well plates to confluence. Wells were washed two times with serum free Minimal Essential Medium (MEM) to remove FBS. 0.2ml of virus was added per well in MEM supplemented with 4mM glutamine and gentamycin. After 1 hour adsorption, the virus was aspirated from each well. The appropriate concentration of each compound in 5 ml of Medium 199 (M-199) supplemented with 2% lamb serum, 4mM glutamine, 0.5% agarose and gentamycin was added to each well. Cultures were incubated at 37°C in a humidified 5% CO₂ incubator for 3-4 weeks. To terminate the test: cultures were fixed in 10% formalin, the agar removed, the monolayers stained with 1% crystal violet and plaques counted. Each compound concentration was run in triplicate. […] 0 is no toxicity observed while 4 is total lysing of the cell monolayer.
The 96 well plate assay was performed similarly to the plaque assay above with modifications. SCP cells were seeded at 1 x 10⁴ cells per well in 0.1 ml DME medium. When confluent, the wells were washed with serum free MEM and 25ul of virus added in M-199 supplemented with 2% lamb serum. After 1 hour, 75uL of medium containing test compound was added to each well containing virus. After 2-3 weeks incubation the cytopathic effect of the virus was determined by staining with a vital stain. Cell viability was measured by determining stain density using a 96 well plate reader.

[2] = system: Sheep choroid plexus(SCP) cells; assay: Toxicity of compounds in control wells without virus, graded morphologically 0 to 4; assay type: cell-based; design: key: 0 = no toxicity; 4 = total cell lyses; conditions: 0 to 4 scale
Method: as §1
Control wells without virus were completed to determine the toxicity of compounds.

[3] = biological target: T1, Yeast alpha-glucosidase (Saccharomyces cerevisiae, UniProt P53341); assay: Alpha-glucosidase inhibition assay, pH 7.4 (p-nitrophenol release); assay type: biochemical; conditions: Table 3
T1 construct: purchased Sigma
T1 sequence (P53341 whole entry): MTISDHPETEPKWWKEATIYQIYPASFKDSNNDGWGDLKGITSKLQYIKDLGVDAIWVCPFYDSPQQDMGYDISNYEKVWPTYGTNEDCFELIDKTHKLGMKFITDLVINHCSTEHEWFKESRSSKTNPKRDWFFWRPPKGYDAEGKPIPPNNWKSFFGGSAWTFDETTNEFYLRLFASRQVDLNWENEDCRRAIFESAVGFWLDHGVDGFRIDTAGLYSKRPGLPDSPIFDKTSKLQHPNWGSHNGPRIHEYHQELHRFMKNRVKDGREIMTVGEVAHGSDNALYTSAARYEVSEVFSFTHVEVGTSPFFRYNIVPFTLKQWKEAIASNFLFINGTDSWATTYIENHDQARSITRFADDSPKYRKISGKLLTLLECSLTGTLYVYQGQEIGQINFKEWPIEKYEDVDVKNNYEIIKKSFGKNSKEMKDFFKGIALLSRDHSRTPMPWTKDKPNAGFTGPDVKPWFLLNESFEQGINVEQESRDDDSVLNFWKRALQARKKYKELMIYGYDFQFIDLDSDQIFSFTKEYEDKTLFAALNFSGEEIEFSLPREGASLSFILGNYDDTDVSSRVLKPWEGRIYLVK
Method: Yeast alpha-glucosidase and almond beta-glucosidase activities were measured by a modification of the method of Evans, et al., Phytochemistry 22, 768-770 (1983). The modifications included 1) assay of activities at pH 7.4 in HEPES (N-2-hydroxyethylpiperazine-N′-2-ethanesulfonic acid) buffer, 2) measurement in 96 well microtiter plates and 3) inclusion of 10% DMSO in control and test samples. The release of p-nitrophenol from the substrate p-nitrophenylglycoside was measured spectrophotometrically in the presence and absence of test compound. Each assay included a known inhibitor of the enzyme as a standard. IC₅₀ values were determined for compounds which inhibited the enzymes more than 50% at a 1 millimolar concentration. To 100 µl 50 mM HEPES buffer, pH 7.4, in a microtiter plate, add 20 µl test compound in DMSO (DMSO alone in control), 40 µl (0.013 units) yeast alpha-glucosidase (Sigma) in HEPES buffer and pre-incubate at room temperature for 15 minutes. […] Absorption change was measured at 15 to 25 minutes (reaction was linear for at least 30 minutes). Each sample was tested in triplicate. IC₅₀ values were determined from the linear portion of the log concentration vs % inhibition curve obtained from a minimum of 3 points. Deoxynojirimycin was used as standard inhibitor.

In the case of `CCCCN1C[C@H](OC(C)=O)[C@@H](OC(C)=O)[C@@H]1COC(C)=O` [Example 5, 1,4-(Butylimino)-1,4-dideoxy-L-arabinitol, triacetate], the inhibition at 1 µM [1] is reported as 9%, the inhibition at 10 µM [1] is reported as 10% and the inhibition at 100 µM [1] is reported as 10%. It also gave an inhibition at 1000 µM [1] of 83%, a Toxicity ([2]; Concentration 0.001 mM) of 0 and a Toxicity ([2]; Concentration 0.01 mM) of 0. The Toxicity ([2]; Concentration 0.1 mM) was 0 and the Toxicity ([2]; Concentration 1.0 mM) was 0.

`CCCCCCN1CC(O)C(O)C1CO` [Example 6, 1,4-(Hexylimino)-1,4-dideoxy-L-arabinitol] showed an EC50 [1] of 125 µM and an IC50 ([3]; pH 7.4, read-out: α-glucosidase IC₅₀) of 35 µM.

In the case of `CCCCCCN1C[C@H](OC(C)=O)[C@@H](OC(C)=O)[C@@H]1COC(C)=O` [Example 7, 1,4-(Hexylimino)-1,4-dideoxy-L-arabinitol, triacetate], the “Antiviral Activity” value ([1]; 0.01 mM Concn.) is reported as “A”, the “Antiviral Activity” value ([1]; 0.1 mM Concn.) is reported as “A” and the Toxicity ([2]; Table 4, 0.01 mM Concn.) is reported as 0. The Toxicity ([2]; Table 4, 0.1 mM Concn.) was 2 and the Toxicity ([2]; Table 4, 1.0 mM Concn.) was 4.

`CCc1ccc(CN2C[C@H](O)[C@@H](O)[C@@H]2CO)cc1` [Example 9, 1,4-([4-Ethylphenyl]methylimino)-1,4-dideoxy-L-arabinitol] showed an EC50 [1] of 100 µM.

In the case of `CCc1ccc(CN2C[C@H](OC(C)=O)[C@@H](OC(C)=O)[C@@H]2COC(C)=O)cc1` [Example 10, 1,4-([4-Ethylphenyl]methylimino)-1,4-dideoxy-L-arabinitol, triacetate], the Toxicity ([2]; Table 4, 0.01 mM Concn.) is reported as 1, the Toxicity ([2]; Table 4, 0.1 mM Concn.) is reported as 1 and the Toxicity ([2]; Table 4, 1.0 mM Concn.) is reported as 4.

`CC(=O)OCCCCCN1C[C@H](OC(C)=O)[C@@H](OC(C)=O)[C@@H]1COC(C)=O` [Example 15, 1,4-([5-Acetyloxypentyl]imino)-1,4-dideoxy-L-arabinitol, triacetate] showed an EC50 [1] of 100 µM.

For `CCCC(=O)OC[C@@H]1NC[C@H](OC(=O)CCC)[C@H]1OC(=O)CCC` [Example 23, 1,4-Imino-1,4-dideoxy-L-arabinitol, tributyrate], the EC50 [1] was 1 µM.

With `CC(=O)OC[C@H]1[C@H](OC(C)=O)[C@@H](OC(C)=O)CN1C(=O)c1ccccc1` [Example 27, 1,4-(Benzoylimino)-1,4-dideoxy-L-arabinitol, triacetate] the inhibition at 1000 µM ([3]; at 1 mM, read-out: α-glucosidase Inhibitory Activity) was 23%.

`CCC(=O)N1C[C@H](OC(C)=O)[C@@H](OC(C)=O)[C@@H]1COC(C)=O` [Example 31, 1,4-(Propionylimino)-1,4-dideoxy-L-arabinitol, triacetate] gave a Toxicity ([2]; Table 4, 0.1 mM Concn.) of 1 and a Toxicity ([2]; Table 4, 1.0 mM Concn.) of 3.

For `CCCCN1C[C@H](O)[C@@H](O)[C@H](O)[C@H]1CO` [N-Bu-DNJ, N-butyl derivative of 1,5-dideoxy-1,5-imino-D-glucitol, reference compound], the inhibition at 1 µM [1] was -74%, the inhibition at 10 µM [1] was 13% and the inhibition at 100 µM [1] was 100%. The inhibition at 1000 µM [1] was 100%, the Toxicity ([2]; Concentration 0.001 mM) was 0 and the Toxicity ([2]; Concentration 0.01 mM) was 0. It also gave a Toxicity ([2]; Concentration 0.1 mM) of 1 and a Toxicity ([2]; Concentration 1.0 mM) of 2.
